Laboratory results published in PubChem BioAssay (NCI).
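Following 48 hours of exposure in 96-well plates, responses at five concentrations were used to interpolate endpoints linearly. GI50 = concentration required for 50% inhibition of growth. TGI denotes the concentration required for complete inhibition of growth.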

Tests used:
Test in all cases: NCI anticancer screen, dose series, 48 h; in the data active = GI50 below about 0.43 µM; inactive = the rest
EKVX NSCLC = tested on: EKVX NSCLC
OVCAR-3 ovarian = tested on: OVCAR-3 ovarian
SF-295 CNS = tested on: SF-295 CNS
786-0 renal = tested on: 786-0 renal
SNB-75 CNS = tested on: SNB-75 CNS
OVCAR-5 ovarian = tested on: OVCAR-5 ovarian
M14 melanoma = tested on: M14 melanoma
ACHN renal = tested on: ACHN renal
UO-31 renal = tested on: UO-31 renal
HCC-2998 colon = tested on: HCC-2998 colon
SF-268 CNS = tested on: SF-268 CNS
MDA-MB-435 = tested on: MDA-MB-435
SK-MEL-5 melanoma = tested on: SK-MEL-5 melanoma
DU-145 prostate = tested on: DU-145 prostate
CAKI-1 renal = tested on: CAKI-1 renal
KM12 colon = tested on: KM12 colon
OVCAR-4 ovarian = tested on: OVCAR-4 ovarian
BT-549 breast = tested on: BT-549 breast
SF-539 CNS = tested on: SF-539 CNS
UACC-257 melanoma = tested on: UACC-257 melanoma
NCI-H460 lung = tested on: NCI-H460 lung
HS 578T breast = tested on: HS 578T breast
HCT-15 colon = tested on: HCT-15 colon
SW-620 colon = tested on: SW-620 colon
SR leukemia = tested on: SR leukemia
SK-MEL-28 melanoma = tested on: SK-MEL-28 melanoma
U251 CNS = tested on: U251 CNS
NCI-H23 lung = tested on: NCI-H23 lung
OVCAR-8 ovarian = tested on: OVCAR-8 ovarian
K-562 leukemia = tested on: K-562 leukemia
RPMI-8226 leukemia = tested on: RPMI-8226 leukemia
MDA-MB-231 breast = tested on: MDA-MB-231 breast
HT29 colon = tested on: HT29 colon
UACC-62 melanoma = tested on: UACC-62 melanoma
A549 NSCLC = tested on: A549 NSCLC
SK-MEL-2 melanoma = tested on: SK-MEL-2 melanoma
HOP-62 NSCLC = tested on: HOP-62 NSCLC
RXF 393 renal = tested on: RXF 393 renal
NCI/ADR-RES ovarian = tested on: NCI/ADR-RES ovarian
MCF7 breast = tested on: MCF7 breast
CCRF-CEM leukemia = tested on: CCRF-CEM leukemia
NCI-H226 lung = tested on: NCI-H226 lung
NCI-H522 lung = tested on: NCI-H522 lung
IGROV1 ovarian = tested on: IGROV1 ovarian
COLO 205 colon = tested on: COLO 205 colon
PC-3 prostate = tested on: PC-3 prostate
TK-10 renal = tested on: TK-10 renal
LOX IMVI melanoma = tested on: LOX IMVI melanoma
HCT-116 colon = tested on: HCT-116 colon
SNB-19 CNS = tested on: SNB-19 CNS
SN12C renal = tested on: SN12C renal
HL-60(TB) leukemia = tested on: HL-60(TB) leukemia
MALME-3M melanoma = tested on: MALME-3M melanoma
SK-OV-3 ovarian = tested on: SK-OV-3 ovarian
MOLT-4 leukemia = tested on: MOLT-4 leukemia
T-47D breast = tested on: T-47D breast
HOP-92 NSCLC = tested on: HOP-92 NSCLC

COc1cnc2c(c1)C(=O)c1c-2n(CCCNC2=NCCS2)c(=O)c2cc([N+](=O)[O-])ccc12
inactive: GI50 (EKVX NSCLC) 1.01 µM | GI50 (OVCAR-5 ovarian) 1.04 µM | GI50 (HCC-2998 colon) 1.03 µM | GI50 (MDA-MB-435) 0.478 µM | GI50 (KM12 colon) 1.11 µM | GI50 (OVCAR-4 ovarian) 0.482 µM | GI50 (UACC-257 melanoma) 0.575 µM | GI50 (HS 578T breast) 1.82 µM | GI50 (HCT-15 colon) 1.17 µM
1.05 µM: TGI (SF-539 CNS)
active: GI50 (OVCAR-3 ovarian) 0.137 µM | GI50 (SF-295 CNS) 0.0132 µM | GI50 (786-0 renal) 0.0235 µM | GI50 (SNB-75 CNS) 0.0329 µM | GI50 (M14 melanoma) < 0.01 µM | GI50 (ACHN renal) < 0.01 µM | GI50 (UO-31 renal) < 0.01 µM | GI50 (SF-268 CNS) < 0.01 µM | GI50 (SK-MEL-5 melanoma) 0.0284 µM | GI50 (DU-145 prostate) < 0.01 µM | GI50 (CAKI-1 renal) < 0.01 µM | GI50 (BT-549 breast) 0.0544 µM | GI50 (SF-539 CNS) 0.0359 µM | GI50 (NCI-H460 lung) < 0.01 µM | GI50 (SW-620 colon) 0.0139 µM
1.16 µM: TGI (M14 melanoma)
4.54 µM: TGI (HS 578T breast)
0.265 µM: TGI (SF-295 CNS)
1.81 µM: TGI (OVCAR-3 ovarian) | TGI (SNB-75 CNS)
1.84 µM: TGI (SW-620 colon)
1.92 µM: TGI (BT-549 breast)
2.82 µM: TGI (EKVX NSCLC)
2.29 µM: TGI (MDA-MB-435)
1.19 µM: TGI (UO-31 renal)
2.66 µM: TGI (HCT-15 colon)
2.45 µM: TGI (HCC-2998 colon)
1.38 µM: TGI (DU-145 prostate)
1.88 µM: TGI (SF-268 CNS)
0.157 µM: TGI (SK-MEL-5 melanoma)
2.58 µM: TGI (OVCAR-4 ovarian)
3.28 µM: TGI (UACC-257 melanoma)
1.47 µM: TGI (CAKI-1 renal)
3.59 µM: TGI (OVCAR-5 ovarian)
1.24 µM: TGI (NCI-H460 lung)
3.13 µM: TGI (KM12 colon)
1.15 µM: TGI (ACHN renal)
0.0925 µM: TGI (786-0 renal)

COc1ccc(C(=O)Nc2ccc(O)c(=O)cc2)cc1
56.4 µM: TGI (SK-MEL-28 melanoma)
54.6 µM: TGI (HL-60(TB) leukemia)
31.4 µM: TGI (SR leukemia)
47 µM: TGI (UO-31 renal)
91.7 µM: TGI (OVCAR-8 ovarian)
28.7 µM: TGI (NCI-H460 lung)
81.1 µM: TGI (SF-539 CNS)
44.1 µM: TGI (HT29 colon)
59 µM: TGI (EKVX NSCLC) | TGI (DU-145 prostate)
77.3 µM: TGI (K-562 leukemia)
65 µM: TGI (MCF7 breast)
89.5 µM: TGI (HCT-15 colon)
63.4 µM: TGI (SF-268 CNS)
93.6 µM: TGI (SNB-19 CNS)
> 100 µM: TGI (U251 CNS) | TGI (NCI-H23 lung) | TGI (SF-295 CNS) | TGI (786-0 renal) | TGI (RPMI-8226 leukemia) | TGI (OVCAR-5 ovarian) | TGI (MDA-MB-231 breast) | TGI (M14 melanoma) | TGI (UACC-62 melanoma) | TGI (A549 NSCLC) | TGI (HCC-2998 colon) | TGI (MDA-MB-435) | TGI (SK-MEL-5 melanoma) | TGI (SK-MEL-2 melanoma) | TGI (HOP-62 NSCLC) | TGI (NCI/ADR-RES ovarian) | TGI (CAKI-1 renal) | TGI (KM12 colon) | TGI (BT-549 breast) | TGI (NCI-H226 lung) | TGI (UACC-257 melanoma) | TGI (IGROV1 ovarian) | TGI (PC-3 prostate) | TGI (TK-10 renal) | TGI (LOX IMVI melanoma) | TGI (HCT-116 colon) | TGI (HS 578T breast) | TGI (SN12C renal) | TGI (SW-620 colon) | TGI (MALME-3M melanoma)
37.3 µM: TGI (RXF 393 renal)
57 µM: TGI (COLO 205 colon)
90 µM: TGI (OVCAR-3 ovarian)
63.1 µM: TGI (NCI-H522 lung)
72.1 µM: TGI (CCRF-CEM leukemia)
59.8 µM: TGI (ACHN renal)

O=C(NCP(=O)(Oc1ccccc1)Oc1ccccc1)OCc1ccccc1
> 100 µM: TGI (SK-OV-3 ovarian) | TGI (SR leukemia) | TGI (SK-MEL-28 melanoma) | TGI (EKVX NSCLC) | TGI (OVCAR-3 ovarian) | TGI (U251 CNS) | TGI (NCI-H23 lung) | TGI (SF-295 CNS) | TGI (OVCAR-8 ovarian) | TGI (786-0 renal) | TGI (K-562 leukemia) | TGI (SNB-75 CNS) | TGI (RPMI-8226 leukemia) | TGI (OVCAR-5 ovarian) | TGI (M14 melanoma) | TGI (ACHN renal) | TGI (UO-31 renal) | TGI (HT29 colon) | TGI (UACC-62 melanoma) | TGI (A549 NSCLC) | TGI (SF-268 CNS) | TGI (MDA-MB-435) | TGI (SK-MEL-5 melanoma) | TGI (MOLT-4 leukemia) | TGI (SK-MEL-2 melanoma) | TGI (HOP-62 NSCLC) | TGI (NCI/ADR-RES ovarian) | TGI (CAKI-1 renal) | TGI (KM12 colon) | TGI (OVCAR-4 ovarian) | TGI (BT-549 breast) | TGI (MCF7 breast) | TGI (CCRF-CEM leukemia) | TGI (NCI-H226 lung) | TGI (UACC-257 melanoma) | TGI (NCI-H522 lung) | TGI (T-47D breast) | TGI (IGROV1 ovarian) | TGI (COLO 205 colon) | TGI (PC-3 prostate) | TGI (TK-10 renal) | TGI (LOX IMVI melanoma) | TGI (NCI-H460 lung) | TGI (HS 578T breast) | TGI (HOP-92 NSCLC) | TGI (SNB-19 CNS) | TGI (SN12C renal) | TGI (HCT-15 colon) | TGI (HL-60(TB) leukemia) | TGI (SW-620 colon) | TGI (MALME-3M melanoma)
